Laboratory results published in the supplement of paper PMC10307832.

Tests used:
Assay in all cases: relative viability (nuclei count vs DMSO), 5 days (fraction); higher = more cells survive
Gemcitabine + Navitoclax = compound: Nc1ccn([C@@H]2O[C@H](CO)[C@@H](O)C2(F)F)c(=O)n1 [Gemcitabine] + CC1(C)CCC(c2ccc(Cl)cc2)=C(CN2CCN(c3ccc(C(=O)NS(=O)(=O)c4ccc(N[C@H](CCN5CCOCC5)CSc5ccccc5)c(S(=O)(=O)C(F)(F)F)c4)cc3)CC2)C1 [Navitoclax] (partner 0.5 µM)
How it was run: (§1)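 Values are medians from duplicate plates. Each reflects relative viability, defined as the nuclei count of treated wells over that of vehicle wells. Lung cancer cell lines in 1536-well plates were pin-tool dosed one day after seeding with one drug alone or with a fixed anchor-drug dose plus five library-drug doses (not always all listed) in √10 steps, then fixed, stained and imaged at 4× after 5 days.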

Gemcitabine + Linsitinib = compound: Nc1ccn([C@@H]2O[C@H](CO)[C@@H](O)C2(F)F)c(=O)n1 [Gemcitabine] + C[C@]1(O)C[C@@H](c2nc(-c3ccc4ccc(-c5ccccc5)nc4c3)c3c(N)nccn32)C1 [Linsitinib] (partner 1 µM)
How it was run: as §1

Gemcitabine + Alpelisib = compound: Nc1ccn([C@@H]2O[C@H](CO)[C@@H](O)C2(F)F)c(=O)n1 [Gemcitabine] + Cc1nc(NC(=O)N2CCC[C@H]2C(N)=O)sc1-c1ccnc(C(C)(C)C(F)(F)F)c1 [Alpelisib] (partner 2 µM)
How it was run: as §1

Gemcitabine + Vorinostat = compound: Nc1ccn([C@@H]2O[C@H](CO)[C@@H](O)C2(F)F)c(=O)n1 [Gemcitabine] + O=C(CCCCCCC(=O)Nc1ccccc1)NO [Vorinostat] (partner 1 µM)
How it was run: as §1

Row | Cell Line | relative viability (Gemcitabine + Navitoclax; first compound 0.001 µM) | relative viability (Gemcitabine + Navitoclax; first compound 0.003162 µM) | relative viability (Gemcitabine + Navitoclax; first compound 0.01 µM) | relative viability (Gemcitabine + Navitoclax; first compound 0.03162 µM) | relative viability (Gemcitabine + Navitoclax; first compound 0.1 µM) | relative viability (Gemcitabine + Linsitinib; first compound 0.001 µM) | relative viability (Gemcitabine + Linsitinib; first compound 0.003162 µM) | relative viability (Gemcitabine + Linsitinib; first compound 0.01 µM) | relative viability (Gemcitabine + Linsitinib; first compound 0.03162 µM) | relative viability (Gemcitabine + Linsitinib; first compound 0.1 µM) | relative viability (Gemcitabine + Alpelisib; first compound 0.001 µM) | relative viability (Gemcitabine + Alpelisib; first compound 0.01 µM) | relative viability (Gemcitabine + Alpelisib; first compound 0.03162 µM) | relative viability (Gemcitabine + Alpelisib; first compound 0.1 µM) | relative viability (Gemcitabine + Vorinostat; first compound 0.001 µM) | relative viability (Gemcitabine + Vorinostat; first compound 0.003162 µM) | relative viability (Gemcitabine + Vorinostat; first compound 0.01 µM) | relative viability (Gemcitabine + Vorinostat; first compound 0.03162 µM) | relative viability (Gemcitabine + Vorinostat; first compound 0.1 µM) | relative viability (Gemcitabine + Alpelisib; first compound 0.003162 µM)
1 | LK-2 | 0.822 | 0.732 | 0.444 | 0.222 | 0.203 | 0.6 | 0.485 | 0.433 | 0.196 | 0.156 | 1.23 | 0.447 | 0.242 | 0.251 | 0.265 | 0.268 | 0.155 | 0.164 | 0.146 | 
2 | NCI-H661 |  |  |  |  |  | 0.534 | 0.406 | 0.245 | 0.198 | 0.15 | 0.594 | 0.185 | 0.177 | 0.172 | 0.766 | 0.725 | 0.598 | 0.303 | 0.234 | 0.503
3 | HCC-366 | 1.03 | 1.01 | 0.656 | 0.014 | 0.0109 | 0.722 | 0.477 | 0.138 | 0.0302 | 0.0117 | 0.516 | 0.0565 | 0.0184 | 0.0102 | 0.361 | 0.458 | 0.134 | 0.0306 | 0.0198 | 0.359
4 | HOP-62 | 0.933 | 0.813 | 0.097 | 0.0507 | 0.0459 | 1.07 | 0.815 | 0.129 | 0.0627 | 0.056 | 0.829 | 0.0893 | 0.0529 | 0.061 | 0.661 | 0.353 | 0.0836 | 0.0926 | 0.0697 | 0.572
5 | NCI-H1944 | 1.11 | 1.01 | 0.897 | 0.692 | 0.209 | 1.24 | 1.15 | 1.17 | 0.509 | 0.259 | 0.855 | 0.783 | 0.366 | 0.14 | 0.59 | 0.572 | 0.321 | 0.192 | 0.131 | 0.845
6 | SW 1573 | 1.18 | 0.986 | 0.0907 | 0.0747 | 0.0361 | 0.904 | 0.726 | 0.148 | 0.127 | 0.0847 | 0.749 | 0.295 | 0.0967 | 0.0846 | 0.75 | 0.591 | 0.122 | 0.0661 | 0.0393 | 0.592
7 | EBC-1 | 0.268 | 0.187 | 0.136 | 0.19 | 0.126 | 0.777 | 0.369 | 0.142 | 0.0966 | 0.115 | 0.589 | 0.168 | 0.187 | 0.165 |  |  |  |  |  | 0.21
8 | SW 900 |  |  |  |  |  |  |  |  |  |  |  |  |  |  | 0.476 | 0.374 | 0.236 | 0.129 | 0.146 | 
9 | NCI-H522 |  |  |  |  |  |  |  |  |  |  |  |  |  |  | 0.829 | 0.63 | 0.4 | 0.331 | 0.294 | 
10 | ABC-1 |  |  |  |  |  | 0.92 | 1.01 | 0.689 | 0.286 | 0.243 | 0.95 | 0.838 | 0.45 | 0.307 |  | 1.26 | 1.06 | 0.303 | 0.256 | 0.97
11 | NCI-H1792 | 0.828 | 0.581 | 0.133 | 0.0844 | 0.0803 | 0.561 | 0.363 | 0.131 | 0.109 | 0.0721 | 0.774 | 0.182 | 0.101 | 0.07 |  |  |  |  |  | 0.483
12 | NCI-H1563 |  |  |  |  |  | 1.5 | 1.12 | 1.08 | 0.734 | 0.531 | 0.99 | 0.635 | 0.651 | 0.428 |  |  |  |  |  | 0.94
13 | NCI-H1299 | 1.02 | 1.08 | 1.04 | 1.02 | 1.06 | 0.987 | 1.01 | 0.981 | 1 | 0.972 | 1.04 | 1.03 | 1.05 | 1.09 |  |  |  |  |  | 1.1
14 | ChaGo-K-1 | 0.939 | 0.443 | 0.361 | 0.26 | 0.266 |  |  |  |  |  |  |  |  |  | 0.772 | 0.68 | 0.301 | 0.201 | 0.177 | 
15 | NCI-H2170 | 0.72 | 0.52 | 0.458 | 0.183 | 0.162 |  |  |  |  |  | 0.85 | 0.412 | 0.181 | 0.169 | 0.829 | 0.843 | 0.538 | 0.113 | 0.105 | 0.767
16 | NCI-H2342 |  |  |  |  |  |  |  |  |  |  |  |  |  |  | 0.732 | 0.56 | 0.452 | 0.346 | 0.289 | 
17 | A549 | 1.21 | 1.1 | 0.0375 | 0.0126 | 0.0108 | 0.705 | 0.356 | 0.0342 | 0.0143 | 0.0157 | 0.919 | 0.0341 | 0.0189 | 0.0253 |  |  |  |  |  | 0.276
18 | NCI-H358 |  |  |  |  |  | 0.653 | 0.327 | 0.186 | 0.23 | 0.157 | 0.64 | 0.154 | 0.175 | 0.151 | 0.988 | 0.186 | 0.0888 | 0.113 | 0.0707 | 0.236
19 | NCI-H650 |  |  |  |  |  | 0.634 | 0.282 | 0.21 | 0.153 | 0.147 | 0.816 | 0.179 | 0.177 | 0.159 | 0.38 | 0.25 | 0.15 | 0.121 | 0.111 | 0.486
20 | LCLC-103H |  |  |  |  |  | 1.02 | 1.21 | 0.998 | 0.76 | 0.509 | 1 | 0.949 | 1 | 0.272 | 0.761 | 0.856 | 0.754 | 0.585 | 0.46 | 0.878
21 | NCI-H1650 | 1.57 | 0.851 | 0.434 | 0.176 | 0.11 |  |  |  |  |  |  |  |  |  | 0.55 | 0.33 | 0.34 | 0.21 | 0.127 | 
22 | Calu-6 | 0.789 | 0.317 | 0.111 | 0.0922 | 0.0731 | 0.948 | 0.618 | 0.234 | 0.129 | 0.0919 | 1.02 | 0.224 | 0.13 | 0.12 |  |  |  |  |  | 0.415
